# According to PMC9503446, “Effects of Medicinal Leech-Related Cationic Antimicrobial Peptides on Human Blood Cells and Plasma” (Molecules, 2022):
# Residues, ends and D or L forms follow the SMILES beside them. No end group written: not given here.
# Experiments:
# [1] = system: neutrophils in whole blood; assay: Neutrophil extracellular trap (NET) assay in whole blood; assay type: cell-based, human; conditions: for NET concentration versus control blood: 100 μM peptide, ex vivo blood, 3 h, 37 °C, no PMA
# Experimental: EDTA-anticoagulated capillary blood was obtained via a finger prick. Blood aliquots of 20 μL were placed in 1.5 mL Eppendorf tubes and mixed with 2 μL of a CAMP solution (or 2 μL of PBS in controls). The samples were incubated for 3 h. After the first 1 h, PMA (100 nM final concentration) was added to a part of them, and incubation continued for a further 2 h. Cell settling was prevented by continuous gentle turning the tubes up and down using a Multi Bio RS-24 rotator (Biosan, Riga, Latvia). The blood was retained at the tube bottom by surface tension.
# NET counts were performed using standardized blood smears stained by Romanowsky method. The smears were examined using a Motic B microscope (Motic, Xiamen, China). Quantitative assessment of NETs was performed as described previously. NETs among 300–500 leukocytes were counted in the middle third part of the smear, and the NETs-to-leukocyte percentage ratio was calculated. Based on counting results, the number of NETs in 1 μL of blood was calculated. In each experiment, two parallel samples were prepared and three parallel smears were taken from each at each observation point.
# isolated neutrophils = assay: Luminol-dependent chemiluminescence, neutrophil respiratory burst; assay type: cell-based, human; conditions: for Neutrophil respiratory burst (luminol-dependent chemiluminescence) in response to peptide-pretreated plasma: final peptide 5 μM or 20 μM, final plasma dilution 1:50, 37 °C
# Experimental: Neutrophils and plasma were obtained from the same person. Plasma diluted five times in complete Krebs–Ringer buffer solution was treated with 50 μM or 200 μM CAMP, with plasma dilution and CAMP concentrations being the same as in the samples for hemolysis assay. The final plasma content in samples for CL measurement was restricted to no higher than 2%, since plasma constituents can inhibit luminol-dependent CL due to the scavenging effect. Following the addition of luminol to neutrophils, light emission recording was started. Spontaneous cell activation, if it occurred, was allowed to complete, and then the CAMP-containing plasma or control plasma was added (Figure 6), yielding a final plasma dilution of 1:50 and a final CAMP concentration of 5 μM or 20 μM. […] The effect was dose-dependent (Figure 6).
# Chemiluminescence study was conducted at 37 °C with a Lum-1200 chemiluminometer (DISoft Llc, Moscow, Russia) measuring the intensity of emitted light in volts. Assays were performed with the following components in a total volume of 500 μL:435 μL of neutrophil suspension (final, 0.5 × 10^6 cells/mL) in complete Krebs–Ringer buffer solution, 10 μL of luminol (final, 200 μM), 50 μL of five-fold diluted (in the above buffer solution) autologous plasma containing or not containing CAMP at a desired concentration, 5 μL of PMA (final, 160 nM).
# Neutrophils were placed in chemiluminometer cuvettes and equilibrated at 37 °C in the cuvette holder, after which luminol was added to each sample and the light emission was continuously recorded. In desired time intervals, plasma mixed with CAMP (or control plasma) and then PMA were added.
# [2] = system: blood plasma coagulation (intrinsic and final common pathways); assay: Plasma coagulation assay, activated partial thromboplastin time (APTT); design: species or system human; conditions: for APTT change from the control value: 25, 50, 100 μM peptide in plasma; for APTT prolongation versus control: 15 min pre-incubation at room temperature
# Experimental: (§1) Plasma samples (50 μL) were incubated for 15 min at room temperature with 0, 25, 50 or 100 μM CAMP, and then the coagulation assay steps were carried out according the manufacturer’s instructions.
# (§2) The plasma coagulation tests were performed using an APG4-03-Pkh hemostasis analyzer (EMCO Llc, Moscow, Russia) and MLT-APTT and MLT-THROMBOPLASTIN reagent kits (MLT Llc, Moscow, Russia) according to the manufacturer’s instructions. Testing was performed on Plasma N (normal), a mixed pool of citrate anticoagulated plasma obtained from healthy donors, manufactured by RENAM Rpd, Moscow, Russia. Fifty microliter plasma samples supplemented with CAMPs at different concentrations (or with PBS as control) were pre-incubated at room temperature for 15 min. Afterward, in case of measuring activated partial thromboplastin time (APTT), 50 μL of APTT Reagent were added. The samples were warmed at 37 °C for 3 min, and 50 μL of Calcium Chloride Solution were added to initiate fibrin clot formation. For measuring prothrombin time (PT), pre-incubated plasma samples were warmed at 37 °C for 1 min, and fibrin clot formation was triggered by adding 100 μL of Thromboplastin Reagent.
# [3] = system: blood plasma coagulation (extrinsic and common pathways); assay: Plasma coagulation assay, prothrombin time (PT); design: species or system human; conditions: for Effect on PT: 25, 50, 100 μM peptide in plasma; for PT increase compared to control: 15 min pre-incubation at room temperature
# Experimental: as §1, §2
# Escherichia coli = conditions: cited from earlier work
# Excerpt: Table 1 Cationic antimicrobial peptides (CAMPs) used in this study and their characteristics. | column: MIC, μM (E. coli)
# erythrocytes [4] = assay: Hemolysis assay in the presence of autologous plasma; assay type: cell-based, human
# Experimental: The interaction with blood plasma constituents is known to play an important role in the pharmacokinetics and effectiveness of therapeutic agents. For CAMPs, the binding in plasma could decrease their effective concentration at the site of action and, thereby, their antimicrobial activity. To elucidate whether CAMP interaction with cells is affected by plasma, presumably through CAMP binding, we performed the hemolysis assay. The erythrocyte suspension was added to the same volume of PBS containing CAMP at two times the final concentration or PBS containing both CAMP and 20% autologous plasma. Calculations for extracellular hemoglobin were made based on the negative and positive control samples containing or not containing plasma.
# The hemolytic activity of CAMPs was determined using a hemolysis assay measuring hemoglobin released from damaged cells. […] The supernatant (200 μL) was transferred to the wells of a microplate, and the absorbance of hemoglobin was measured by a Thermo Electron Multiskan Ascent microplate reader (Thermo Fisher Scientific Inc., Waltham, MA, USA), with a test wavelength of 414 nm as well as 540 nm and a background wavelength of 690 nm. The hemolysis percentage was calculated using the following equation: Hemolysis (%) = {(sample absorbance − negative control)/(positive control − negative control)} × 100.
# neutrophils = assay: LDH release cytolysis assay, neutrophils; conditions: 50 μM peptide, PBS, 0.5 h, 37 °C; Lysis solution = 100%
# Experimental: (§3) The disruptive effect of peptides on the plasma membrane of mononuclear cells and neutrophils was evaluated by the leakage of lactate dehydrogenase (LDH) from damaged cells. Experiments were run in PBS as a medium without calcium and magnesium ions, not to favor neutrophil and monocyte activation.
# (§4) Aliquots of cell suspension without or with CAMPs at different concentrations were incubated at 37 °C for 0.5 h. Then, the assay steps were carried out. In each experiment, there were both mononuclear cells and neutrophils from the same healthy subject.
# (§5) The cytolytic activity of CAMPs against mononuclear cells and neutrophils was determined using a lactate dehydrogenase (LDH) assay measuring LDH released upon cell lysis. Working cell suspensions in PBS supplemented with […] glucose were adjusted to an optical density of 0.12 at 800 nm, which corresponded to a cell density of about 600 × 10^3 cells/mL. LDH assay was performed using a Cytotoxicity Detection Kit^PLUS (LDH) (Roche Diagnostics, Mannheim, Germany) according to the manufacturer’s protocol. Then, 50 μL aliquots of CAMP solutions of different concentrations were placed in the wells of a microplate. The medium used for preparing CAMP solutions and the kit’s Lysis solution served for negative and positive controls, respectively. […]
# mononuclear cells = assay: LDH release cytolysis assay, mononuclear cells; conditions: 50 μM peptide, PBS, 0.5 h, 37 °C; Lysis solution = 100%
# Experimental: as §3, §4, §5
# erythrocytes [5] = assay: Morphological observation of isolated erythrocytes (aggregation); assay type: cell-based, human
# Experimental: Pept_3 stood out from the other four CAMPs in that it not only lysed, but also aggregated cells. An erythrocyte aggregate formed is illustrated by Figure 2. Samples for morphological observation of erythrocytes were the same as those for hemolysis assay. After incubation at 37 °C for 0.5 h, the samples were processed to fix with glutaraldehyde for qualitative morphological evaluation with light microscopy. A glutaraldehyde fixation method was applied for isolated cells to prevent damage that can occur during preparing smears, which are good for cells in blood.
# Samples for morphological observation of erythrocytes were the same as those for hemolysis assay. After incubation at 37 °C for 0.5 h, the samples were centrifuged at 100× g for 5 min, following which the supernatant was removed and the cells fixed by resuspending them in 0.5 mL of 1% glutaraldehyde solution in PBS. Then, erythrocytes were left for 3 h at room temperature, with regular mixing. The fixed cells were stored at 4 °C until use. The supernatant over settled cells was withdrawn, and a cell aliquot was placed in a small workspace cut in the piece of scotch tape put on a microscope slide. Images were examined using a Motic B light microscope (Motic, Xiamen, China).
molecule,measurement,setting,value
"CCCCCCCCCCCCCC(=O)O[C@@H]1[C@@H](C)[C@@]2(O)[C@@H](C=C(CO)C[C@]3(O)C(=O)C(C)=C[C@@H]23)[C@@H]2C(C)(C)[C@]12OC(C)=O [PMA, phorbol-12-myristate-13-acetate, reference compound]",Neutrophil activation in whole blood (morphology),"[1]; 100 nM, with or without CAMPs",resulted in neutrophil activation
same,ROS production by neutrophils (luminol-dependent chemiluminescence),"isolated neutrophils; PMA added after CAMP-containing plasma, final 160 nM",induced a high ROS production
"FLIGKAIKRKFCLRSVWNA [pept_7, synthetic short cationic antimicrobial peptide designed by bioinformatic analysis of the medicinal leech genome and microbiome]",APTT change from the control value,[2],did not cause significant changes
same,Effect on PT,[3],did not cause significant changes
same,MIC (E. coli),Escherichia coli,14.3 µM
RPILIRVRRIRVI-NH2 (C-terminus assumed) [pept_5],Effect of plasma on CAMP-induced hemolysis,erythrocytes [4]; 50 μM final peptide (100 μM mixed with five-fold diluted plasma),complete inhibition
same,Effect of plasma on the hemolytic effect,"erythrocytes [4]; 100 μM final peptide, autologous plasma final dilution 1:10, 0.5 h, 37 °C",completely inhibited
same,NET concentration versus control blood,[1],No significant difference
same,Neutrophil respiratory burst (luminol-dependent chemiluminescence) in response to peptide-pretreated plasma,isolated neutrophils,no development of the respiratory burst
same,Lysis of neutrophils (LDH release),neutrophils,~15%
same,Lysis of mononuclear cells (LDH release),mononuclear cells,about 20%
same,APTT change from the control value,[2],No significant APTT change
same,Effect on PT,[3],not significantly affected
same,MIC (E. coli),Escherichia coli,77 µM
"RAVIYKIPYNAIASRWIIAPKKC [pept_8, synthetic short cationic antimicrobial peptide designed by bioinformatic analysis of the medicinal leech genome and microbiome]",APTT prolongation versus control,[2]; 100 μM peptide in plasma,about 45%
same,MIC (E. coli),Escherichia coli,24 µM
CC(C)C[C@H](NC(=O)[C@H](Cc1ccccc1)NC(=O)[C@H](CS)NC(=O)[C@@H](NC(=O)[C@H](CC(C)C)NC(=O)[C@H](CCCNC(=N)N)NC(=O)[C@H](Cc1c[nH]c2ccccc12)NC(=O)[C@@H](N)CCCNC(=N)N)C(C)C)C(=O)N[C@@H](CS)C(=O)N[C@@H](CCCNC(=N)N)C(=O)N[C@@H](CCCNC(=N)N)C(=O)N[C@@H](CCCCN)C(=O)N[C@@H](CCCCN)C(=O)N[C@H](C(N)=O)C(C)C [pept_3] (H-RWRLVCFLCRRKKV-NH2; N-terminus and C-terminus assumed),NET concentration versus control blood,[1],No significant difference
same,Neutrophil respiratory burst (luminol-dependent chemiluminescence) in response to peptide-pretreated plasma,isolated neutrophils,"CL increase, though relatively low"
same,Erythrocyte aggregation,"erythrocytes [5]; 50 μM peptide in PBS, 0.5 h, 37 °C, glutaraldehyde fixation, light microscopy",induces erythrocyte aggregation
same,"Erythrocyte aggregation, peptide preincubated with plasma",erythrocytes [5]; peptide preincubated with plasma,no cell aggregation was observed
same,APTT prolongation versus control,[2]; 100 μM peptide in plasma,~390%
same,PT increase compared to control,[3]; 25 μM peptide in plasma,about 165%
same,PT increase compared to control,[3]; 50 μM peptide in plasma,320%
same,PT increase compared to control,[3]; 100 μM peptide in plasma,~780%
same,MIC (E. coli),Escherichia coli,17 µM
KFKKVIWKSFL-NH2 (C-terminus assumed) [pept_4],NET concentration versus control blood,[1],No significant difference
same,Neutrophil respiratory burst (luminol-dependent chemiluminescence) in response to peptide-pretreated plasma,isolated neutrophils,no development of the respiratory burst
same,APTT change from the control value,[2],No significant APTT change
same,Effect on PT,[3],not significantly affected
same,MIC (E. coli),Escherichia coli,90 µM
"RLKRFKRVALRREKTARNFRSIVS [pept_6, synthetic short cationic antimicrobial peptide designed by bioinformatic analysis of the medicinal leech genome and microbiome]",APTT increase over the control value,[2]; 25 μM peptide in plasma,1.3 fold
same,APTT increase over the control value,[2]; 50 μM peptide in plasma,2.1 fold
same,APTT increase over the control value,[2]; 100 μM peptide in plasma,2.9 fold
same,Effect on PT,[3],no significant effect
same,MIC (E. coli),Escherichia coli,>100 µM
